Calls of active or inactive are those of the source. The rule behind the calls is not given here.
Experiments:
Butyrylcholinesterase = Butyrylcholinesterase (Rattus norvegicus, UniProt Q9JKC1); experiment: Inhibition of rat serum BChE using butyrylthiocholine chloride as substrate incubated for 15 mins by Ellman's method
Acetylcholinesterase [1] = molecular target: Acetylcholinesterase (Homo sapiens, UniProt P22303); experiment: Inhibition of human erythrocyte AChE using acetylthiocholine chloride as substrate incubated for 15 mins by Ellman's method
Sequence of Acetylcholinesterase (Homo sapiens, UniProt P22303) (P22303 whole entry): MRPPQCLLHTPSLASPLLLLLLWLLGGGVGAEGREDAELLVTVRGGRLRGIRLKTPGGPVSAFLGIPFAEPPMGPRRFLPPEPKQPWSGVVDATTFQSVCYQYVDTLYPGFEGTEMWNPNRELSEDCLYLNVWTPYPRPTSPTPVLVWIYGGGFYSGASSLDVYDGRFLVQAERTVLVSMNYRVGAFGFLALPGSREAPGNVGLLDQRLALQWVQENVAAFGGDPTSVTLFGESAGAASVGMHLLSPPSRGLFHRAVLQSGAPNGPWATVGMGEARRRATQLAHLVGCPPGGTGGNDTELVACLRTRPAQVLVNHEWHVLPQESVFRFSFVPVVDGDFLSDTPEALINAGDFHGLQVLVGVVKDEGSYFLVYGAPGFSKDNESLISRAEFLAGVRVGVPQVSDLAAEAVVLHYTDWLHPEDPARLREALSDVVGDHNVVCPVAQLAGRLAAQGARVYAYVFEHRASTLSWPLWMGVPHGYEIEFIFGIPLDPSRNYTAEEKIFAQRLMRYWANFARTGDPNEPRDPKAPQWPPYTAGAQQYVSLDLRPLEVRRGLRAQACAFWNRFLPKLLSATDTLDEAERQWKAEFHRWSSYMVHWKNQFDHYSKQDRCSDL

Cholinesterase [2] = molecular target: Cholinesterase (Homo sapiens, UniProt P06276); experiment: Inhibition of human serum BChE using butyrylthiocholine chloride as substrate incubated for 15 mins by Ellman's method
Sequence of Cholinesterase (Homo sapiens, UniProt P06276) (P06276 whole entry): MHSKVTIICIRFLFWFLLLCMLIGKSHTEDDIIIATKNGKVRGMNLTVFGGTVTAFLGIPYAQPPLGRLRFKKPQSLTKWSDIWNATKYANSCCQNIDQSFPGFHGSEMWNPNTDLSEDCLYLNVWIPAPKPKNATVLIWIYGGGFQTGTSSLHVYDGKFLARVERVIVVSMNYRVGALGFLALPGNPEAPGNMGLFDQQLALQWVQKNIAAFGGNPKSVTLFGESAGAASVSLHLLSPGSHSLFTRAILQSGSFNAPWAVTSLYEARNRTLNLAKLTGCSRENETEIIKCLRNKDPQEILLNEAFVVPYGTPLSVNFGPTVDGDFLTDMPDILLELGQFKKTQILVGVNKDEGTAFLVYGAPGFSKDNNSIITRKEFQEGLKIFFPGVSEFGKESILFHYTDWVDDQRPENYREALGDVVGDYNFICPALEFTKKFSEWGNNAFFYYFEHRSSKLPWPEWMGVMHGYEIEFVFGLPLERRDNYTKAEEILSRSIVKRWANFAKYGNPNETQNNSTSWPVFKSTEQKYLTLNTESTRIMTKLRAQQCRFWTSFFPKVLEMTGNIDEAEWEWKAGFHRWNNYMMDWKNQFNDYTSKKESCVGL

[3] = molecular target: T1, Amine oxidase [flavin-containing] A (Homo sapiens, UniProt P21397); experiment: Inhibition of human recombinant MAO-A expressed in baculovirus infected BTI insect cells at 20 uM using kynuramine as substrate after 30 mins by fluorescence assay relative to control; details: 0.5 h
T1 sequence (P21397 whole entry): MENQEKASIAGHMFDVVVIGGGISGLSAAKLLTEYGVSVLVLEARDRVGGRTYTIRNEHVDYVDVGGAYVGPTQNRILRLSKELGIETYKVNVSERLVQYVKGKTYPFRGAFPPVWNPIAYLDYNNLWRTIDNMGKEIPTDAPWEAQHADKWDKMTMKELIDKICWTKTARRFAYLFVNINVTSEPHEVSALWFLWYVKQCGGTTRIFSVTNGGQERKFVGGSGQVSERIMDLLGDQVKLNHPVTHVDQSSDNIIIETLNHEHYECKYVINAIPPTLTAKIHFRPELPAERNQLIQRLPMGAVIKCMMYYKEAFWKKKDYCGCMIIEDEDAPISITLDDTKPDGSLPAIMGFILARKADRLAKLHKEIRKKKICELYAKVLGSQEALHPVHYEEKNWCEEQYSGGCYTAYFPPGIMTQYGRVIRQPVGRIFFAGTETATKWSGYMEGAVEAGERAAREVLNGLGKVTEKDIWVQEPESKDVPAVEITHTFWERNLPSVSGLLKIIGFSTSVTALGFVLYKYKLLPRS

SH-SY5Y [4] = experiment: Cytotoxicity against human SH-SY5Y cells assessed as decrease in cell viability at 100 uM after 24 hrs by MTT assay; type: cell-based
SH-SY5Y [5] = experiment: Cytotoxicity against human SH-SY5Y cells assessed as decrease in cell viability up to 10 uM after 24 hrs by MTT assay; type: cell-based
Acetylcholinesterase [6] = molecular target: T2, Acetylcholinesterase (Rattus norvegicus, UniProt P37136); experiment: Inhibition of rat cortex homogenate AChE using acetylthiocholine chloride as substrate incubated for 15 mins by Ellman's method
T2 sequence (P37136 whole entry): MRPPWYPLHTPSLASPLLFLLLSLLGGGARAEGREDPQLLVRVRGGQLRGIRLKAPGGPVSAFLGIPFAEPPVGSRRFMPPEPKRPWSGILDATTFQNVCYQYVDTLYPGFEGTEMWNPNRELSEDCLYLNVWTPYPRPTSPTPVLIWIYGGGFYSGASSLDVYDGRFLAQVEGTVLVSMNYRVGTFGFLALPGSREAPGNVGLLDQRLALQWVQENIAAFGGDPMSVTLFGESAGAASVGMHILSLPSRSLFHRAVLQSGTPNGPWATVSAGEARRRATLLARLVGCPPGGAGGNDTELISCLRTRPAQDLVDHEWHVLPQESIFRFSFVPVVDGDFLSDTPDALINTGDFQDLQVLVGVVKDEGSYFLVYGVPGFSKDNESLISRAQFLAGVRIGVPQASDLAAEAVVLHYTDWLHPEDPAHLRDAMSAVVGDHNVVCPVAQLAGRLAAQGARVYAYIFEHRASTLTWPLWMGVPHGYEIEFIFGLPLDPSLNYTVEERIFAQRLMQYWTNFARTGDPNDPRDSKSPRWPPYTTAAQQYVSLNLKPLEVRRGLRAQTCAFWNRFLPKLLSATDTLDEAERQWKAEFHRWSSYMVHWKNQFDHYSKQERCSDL

[7] = molecular target: Acetylcholinesterase (Electrophorus electricus) (UniProt O42275); experiment: Mixed-type inhibition of electric eel AChE at 0.5 to 2 uM using acetylthiocholine chloride as substrate by Lineweaver-Burk plot analysis
Sequence of Acetylcholinesterase (Electrophorus electricus) (O42275 24-633 limits assumed): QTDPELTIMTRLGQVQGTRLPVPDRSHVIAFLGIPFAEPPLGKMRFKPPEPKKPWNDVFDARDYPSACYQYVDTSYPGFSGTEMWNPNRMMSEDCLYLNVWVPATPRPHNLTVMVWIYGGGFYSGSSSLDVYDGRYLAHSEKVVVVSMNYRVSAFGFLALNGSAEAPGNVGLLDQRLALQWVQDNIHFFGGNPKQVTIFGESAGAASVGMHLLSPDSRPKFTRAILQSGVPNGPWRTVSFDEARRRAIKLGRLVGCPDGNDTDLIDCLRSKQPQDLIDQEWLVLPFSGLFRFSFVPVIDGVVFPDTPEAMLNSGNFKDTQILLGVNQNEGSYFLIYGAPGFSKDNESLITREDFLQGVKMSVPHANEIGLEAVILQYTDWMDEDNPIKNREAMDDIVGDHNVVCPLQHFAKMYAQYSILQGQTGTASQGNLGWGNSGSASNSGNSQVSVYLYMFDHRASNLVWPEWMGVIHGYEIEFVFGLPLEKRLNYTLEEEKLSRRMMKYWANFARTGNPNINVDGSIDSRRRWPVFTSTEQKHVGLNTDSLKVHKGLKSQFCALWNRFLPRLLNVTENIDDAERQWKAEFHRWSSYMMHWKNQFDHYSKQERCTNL

Acetylcholinesterase [8] = molecular target: Acetylcholinesterase (Electrophorus electricus, UniProt O42275); experiment: Inhibition of electric eel AChE using acetylthiocholine chloride as substrate incubated for 15 mins by Ellman's method
Sequence of Acetylcholinesterase (Electrophorus electricus, UniProt O42275) (O42275 whole entry): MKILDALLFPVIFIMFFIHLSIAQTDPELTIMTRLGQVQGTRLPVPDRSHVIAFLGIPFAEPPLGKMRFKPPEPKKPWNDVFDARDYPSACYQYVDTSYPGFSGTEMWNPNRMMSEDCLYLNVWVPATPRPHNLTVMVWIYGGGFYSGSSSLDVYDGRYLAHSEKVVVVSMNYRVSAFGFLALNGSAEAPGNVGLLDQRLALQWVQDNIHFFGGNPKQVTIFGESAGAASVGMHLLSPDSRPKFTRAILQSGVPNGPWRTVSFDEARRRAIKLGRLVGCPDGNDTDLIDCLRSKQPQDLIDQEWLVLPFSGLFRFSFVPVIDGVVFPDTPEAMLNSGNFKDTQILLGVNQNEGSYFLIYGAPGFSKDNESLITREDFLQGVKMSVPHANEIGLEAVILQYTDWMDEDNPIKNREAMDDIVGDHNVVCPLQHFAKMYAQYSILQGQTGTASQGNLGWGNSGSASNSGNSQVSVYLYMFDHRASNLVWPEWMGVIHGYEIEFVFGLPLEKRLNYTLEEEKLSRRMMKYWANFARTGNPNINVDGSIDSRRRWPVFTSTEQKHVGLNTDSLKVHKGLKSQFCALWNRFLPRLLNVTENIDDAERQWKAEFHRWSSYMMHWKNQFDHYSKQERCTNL

Cholinesterase [9] = molecular target: Cholinesterase (Equus caballus, UniProt P81908); experiment: Inhibition of equine serum BChE using butyrylthiocholine chloride as substrate incubated for 15 mins by Ellman's method
Sequence of Cholinesterase (Equus caballus, UniProt P81908) (P81908 whole entry): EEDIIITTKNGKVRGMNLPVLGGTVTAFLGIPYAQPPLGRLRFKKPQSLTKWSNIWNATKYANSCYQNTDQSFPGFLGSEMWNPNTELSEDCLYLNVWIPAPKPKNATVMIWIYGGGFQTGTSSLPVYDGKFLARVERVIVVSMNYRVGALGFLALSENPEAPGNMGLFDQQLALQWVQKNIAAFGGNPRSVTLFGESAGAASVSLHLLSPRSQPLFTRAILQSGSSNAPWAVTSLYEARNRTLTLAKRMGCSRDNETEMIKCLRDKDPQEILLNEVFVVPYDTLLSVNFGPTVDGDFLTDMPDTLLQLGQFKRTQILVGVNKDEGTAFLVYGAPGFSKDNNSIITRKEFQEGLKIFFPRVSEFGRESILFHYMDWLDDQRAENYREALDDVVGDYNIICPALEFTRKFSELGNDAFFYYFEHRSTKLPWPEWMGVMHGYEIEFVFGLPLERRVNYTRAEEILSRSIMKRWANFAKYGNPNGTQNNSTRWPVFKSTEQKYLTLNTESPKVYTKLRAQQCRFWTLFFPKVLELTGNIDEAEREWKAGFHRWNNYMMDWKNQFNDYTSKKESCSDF

[10] = molecular target: T3, Amine oxidase [flavin-containing] B (Homo sapiens, UniProt P27338); experiment: Inhibition of human recombinant MAO-B expressed in baculovirus infected BTI insect cells using kynuramine as substrate after 30 mins by fluorescence assay; type: cell-based
T3 sequence (P27338 whole entry): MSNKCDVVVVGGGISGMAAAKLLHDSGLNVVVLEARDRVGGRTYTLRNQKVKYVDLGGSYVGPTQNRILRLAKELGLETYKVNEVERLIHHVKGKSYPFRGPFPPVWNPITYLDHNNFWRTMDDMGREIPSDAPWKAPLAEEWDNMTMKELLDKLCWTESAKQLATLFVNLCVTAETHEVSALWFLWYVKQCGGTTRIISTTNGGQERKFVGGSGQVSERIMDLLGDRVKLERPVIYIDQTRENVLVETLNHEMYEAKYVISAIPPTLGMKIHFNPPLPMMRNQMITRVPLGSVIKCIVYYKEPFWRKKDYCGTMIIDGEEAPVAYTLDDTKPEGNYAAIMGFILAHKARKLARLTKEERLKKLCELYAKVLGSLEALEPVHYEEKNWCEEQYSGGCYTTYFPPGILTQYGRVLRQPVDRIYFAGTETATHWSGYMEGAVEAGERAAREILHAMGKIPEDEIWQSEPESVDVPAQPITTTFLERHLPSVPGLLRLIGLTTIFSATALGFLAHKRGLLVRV

[11] = Selectivity index, ratio of IC50 for equine serum BChE to IC50 for electric eel AChE
[12] = Effective permeability of the compound at 100 ug/ml by PAMPA-BBB assay
[13] = molecular target: T4, Acetylcholinesterase (Rattus norvegicus) (UniProt P37136); experiment: Inhibition of rat cortex homogenate AChE at 50 uM using acetylthiocholine chloride as substrate incubated for 15 mins by Ellman's method relative to control
T4 sequence (whole entry): T2 sequence (P37136 whole entry)

[14] = molecular target: Cholinesterase (Equus caballus) (UniProt P81908); experiment: Inhibition of equine serum BChE at 50 uM using butyrylthiocholine chloride as substrate incubated for 15 mins by Ellman's method relative to control
Sequence of Cholinesterase (Equus caballus) (P81908 whole entry): as the sequence (P81908 whole entry) above

[15] = molecular target: Butyrylcholinesterase (Rattus norvegicus) (UniProt Q9JKC1); experiment: Inhibition of rat serum BChE at 50 uM using butyrylthiocholine chloride as substrate incubated for 15 mins by Ellman's method relative to control
Sequence of Butyrylcholinesterase (Rattus norvegicus) (Q9JKC1 as listed by the source): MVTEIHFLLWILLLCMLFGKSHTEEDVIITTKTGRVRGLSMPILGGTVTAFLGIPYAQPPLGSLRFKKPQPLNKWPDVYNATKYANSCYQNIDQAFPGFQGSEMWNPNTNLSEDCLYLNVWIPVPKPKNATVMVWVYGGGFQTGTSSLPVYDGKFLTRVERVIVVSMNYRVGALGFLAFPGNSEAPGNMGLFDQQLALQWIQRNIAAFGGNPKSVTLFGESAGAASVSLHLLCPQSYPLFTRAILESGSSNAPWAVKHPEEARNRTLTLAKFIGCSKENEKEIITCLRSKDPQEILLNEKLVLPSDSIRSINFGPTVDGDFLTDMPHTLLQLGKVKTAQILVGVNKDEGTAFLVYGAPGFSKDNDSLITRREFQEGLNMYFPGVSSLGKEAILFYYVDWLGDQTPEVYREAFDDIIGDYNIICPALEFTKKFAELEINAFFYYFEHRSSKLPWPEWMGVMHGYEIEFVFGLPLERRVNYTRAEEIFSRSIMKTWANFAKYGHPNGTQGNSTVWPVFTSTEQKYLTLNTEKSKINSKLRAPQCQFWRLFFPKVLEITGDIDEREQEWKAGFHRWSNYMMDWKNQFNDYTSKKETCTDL

[16] = molecular target: Acetylcholinesterase (Electrophorus electricus) (UniProt O42275); experiment: Inhibition of electric eel AChE at 50 uM using acetylthiocholine chloride as substrate incubated for 15 mins by Ellman's method relative to control

Sequence of Butyrylcholinesterase (Q9JKC1 whole entry): as the sequence (Q9JKC1 as listed by the source) above

Row | SMILES | IC50 (Butyrylcholinesterase) [nM] | IC50 (Acetylcholinesterase [1]) [nM] | IC50 (Cholinesterase [2]) [nM] | inhibition at 20 µM [3] [%] | Activity (SH-SY5Y [4]) [%] | Activity (SH-SY5Y [5]) | IC50 (Acetylcholinesterase [6]) [nM] | inhibition [7] | IC50 (Acetylcholinesterase [8]) [nM] | IC50 (Cholinesterase [9]) [nM] | IC50 [10] [nM] | Ratio IC50 [11] | Papp at 100 ug/ml [12] [×10⁻⁶ cm/s] | inhibition [13] [%] | inhibition [14] [%] | inhibition [15] [%] | inhibition [16] [%]
1 | C#CCN(CCCN1C(=O)c2ccccc2C1=O)Cc1ccccc1 | 2200 | 1200 | 3800 | < 5 | 86.7 | Non-Toxic | 270 | Active | 840 | 2500 | 2600 | 3 | 26 | – | – | – | –
2 | O=C1NC(=O)c2ccccc21 | – | – | – | – | – | – | – | – | – | – | – | – | – | < 5 | < 5 | < 5 | < 5
